# Source: patent US20260345654A1, “2,8-DIHYDROXYQUINOLINE GLUCURONIDE DERIVATIVES WITH ENHANCED PROPERTIES FOR USE AS ANTICANCER, ANTIVIRAL, ANTIMICROBIAL, AND OTHER THERAPEUTIC APPLICATIONS” (priority 2023, published 2026)
# Entries after “also recorded” stand apart in the source; their conditions may differ. Where two headings read alike, the source gives them in different places.
# Experiments:
# [1] = test system: A549 cells; test: In vitro anti-proliferation (CellTiter-Glo, 72 hr), A549; format: cell-based, human
# Procedure: (§1) Commercially available 8HQ and freshly synthesized G2-8HQ were prepared for in vitro anti-proliferative studies against the following cell lines with and without the presence of 10 μM Cu(+2): (1) A549: […]; (2) BT-549: epithelial cells from ductal tumor; (3) DU-145: human prostate cancer; (4) PANC-1: pancreatic cancer; (5) SU.86.86: a new adoptive pancreatic cell for immunotherapy studies; (6) RL: non-Hodgkin's lymphoma; (7) LnCAP, Prostate cancer cell line; (8) A431, a squamous cell carcinoma line; and (9) UACC-62 a malignant melanoma cell line.
# (§2) With regard to the study protocol used, the objective was to conduct a study of the cytotoxicity of W1469 against several cancer cell lines. In the study protocol, preparations for the A549 (Lung) cell line screen are given as an example. The following materials were used: (1) FBS (2) RPMI-1640 medium supplemented with 10% FBS:’ and (3) A549 Cells. The four samples tested are referred to as Items 1-4 below and were placed at 4 °C upon arrival. These four samples were as follows: • Item 1: Tube A (W1469) (500 uM when FBS added) • Item 2: Tube B (W1469g) (1000 uM when FBS added) • Item 3: Tube C (W1469) • Item 4: Tube D (W1469g)
# Items 1 and 2 are sterile ready for the addition of 1 ml of sterile FBS. Final concentrations after addition of 1 ml: 500 μM for Tube A and 1000 μM for Tube B. Items 3 and 4 are described further below. In the protocol, media containing 10% FBS and 20 μM CuCl2 are used in Tubes C and D only. A and B are serially diluted in media with 10% FBS and no added copper.
# The protocol method proceeds as follows:
# Seed 2, 96-well plates of A549 cells with 5,000 cells per well in a total volume of 50 μL per well. Leave overnight. See plate layout below for which wells to seed with 100 μL of media for media control. The following day, cells are exposed to compounds as described below.
# For Items 1 & 2, to make the 500 μM and 1000 μM Stocks of samples 1 and 2 (W1469 and W1469g): Add 1 ml of sterile FBS to each Tube A and Tube B, swirl to mix.
# To make appropriate 2× final dilutions of sample 1, Tube A (W1469), the following amounts are used: • 500 μM: 10 mL as supplied • 100 μM: 2 mL 500 μM Sample+8 mL media • 30 μM: 3 mL 100 μM Sample+7 mL media • 10 μM: 3 mL 30 μM Sample+6 mL media • 3 μM: 3 mL 10 μM Sample+7 mL media • 1 μM: 3 mL 3 μM Sample+6 mL media • 0.3 μM: 3 mL 1 μM Sample+7 mL media • 0.1 μM: 3 mL 0.3 μM Sample+6 mL media
# To make appropriate 2× final dilutions of sample 2, Tube B (W1469g), the following amounts are used: • 1000 μM: 10 mL as supplied • 300 μM: 3 mL 1000 μM Sample+7 mL media • 100 μM: 3 mL 300 μM Sample+6 mL media • 30 μM: 3 mL 100 μM Sample+7 mL media • 10 μM: 3 mL 30 μM Sample+6 mL media • 3 μM: 3 mL 10 μM Sample+7 mL media • 1 μM: 3 mL 3 μM Sample+6 mL media • 0.3 μM: 3 mL 1 μM Sample+7 mL media
# For Items 3 & 4, the following protocol was used to make 1000 uM Stocks of samples 3 and 4 (W1469 and W1469g): • 1: Dissolve 3.37 mg W1469 and excipient (Tube C) in 1 ml RPMI medium without added FBS and copper and swirl briefly until completely dissolved. Add 9 ml of RPMI media containing 10% FBS and 20 uM copper. Swirl to mix. Sterile filter the 10 ml with provided syringes and filters. This is now the 1000 μM stock solution W1469 ready for screening • 2: Dissolve 3.2 mg W1469g and excipient (Tube D) in 1 ml RPMI medium without added FBS and copper and swirl briefly until completely dissolved. […] This is now the 1000 μM stock solution W1469g ready for screening. […]
# [2] = test system: RL cells; test: In vitro anti-proliferation (CellTiter-Glo, 72 hr), RL; format: cell-based
# Procedure: as §1, §2
# (§3) Add 50 μL of above 2× stocks to appropriate wells to expose appropriate cells to the final dilutions of samples. Add 50 μL media to media and cell control wells and 50 μL media mix to vehicle control wells. Cells are exposed for 72 hr. Following a 72 hr exposure to Sample, perform a CTG assay on all remaining plates.
# (§4) At the end of the 72 hr exposure period, remove plates for CellTiter-Glo assay from 37 °C, 5% CO2 incubator and place on the bench at room temperature for 30 mins. Add 100 μL CellTiter-Glo reagent, mix for 2 mins, followed by a further 10 min incubation at room temperature. Record luminescence. Tables showing the resulting plate layouts are included below/
# [3] = test system: LnCAP cells; test: In vitro anti-proliferation (CellTiter-Glo, 72 hr), LnCAP; format: cell-based
# Procedure: as §1, §2, §3, §4
# (§5) The other cancer cell lines tested gave similar results. […] Three additional cell lines were also studied and described more completely in Example 9 provided herein. These cell lines included cytotoxicity testing of WT1469 (G2-8HQ) against LnCAP a prostate cancer, A431 a squamous carcinoma cell line and UACC-62 a malignant melanoma cell line. All were complexed in situ with copper immediately prior to testing. The results from these additional cell lines and incorporated in Table 2 and Example 9.
# [4] = test system: UACC-62 cells; test: In vitro anti-proliferation (CellTiter-Glo, 72 hr), UACC-62; format: cell-based
# Procedure: as §1, §2, §3, §4, §5
# [5] = 1 and 0.5 μM, presence of Cu^+2 ions, wide standard deviation
# [6] = complexed with Cu in situ, * differences with or without excipient, suboptimal complexing, listed as W1469, read-out: IC50 (adjusted to MW of copper complex)
structure (smiles),measurement,setting,value
"O=C(O)[C@H]1O[C@@H](Oc2ccc3cccc(O)c3n2)[C@H](O)[C@@H](O)[C@@H]1O [G2-8HQ, 8-Hydroxy-2-quinolinyl beta-D-glucopyranosiduronic acid]",cytotoxicity,[1]; [5],in some percentage of the screens all the cancer cells were killed at these concentrations
same,improvement of cytotoxicity in presence of copper,"[1]; A549, 10 or 20 μM Cu^+2 vs −Cu",8-18 fold
same,IC50,"[1]; Homo sapiens, A549, 72 h, −Cu, 72 hr",> 500 µM
same,cytotoxicity,[2]; [5],"in a percentage of cases, all of the cancer cells were killed at concentrations between at 1 and 0.5 μM; also recorded: in some % of the screens all the cancer cells were killed at these concentrations"
same,IC50,"[2]; +Cu (10 μM), 72 hr, G2-8HQ values based on MW of apo form (337), read-out: IC50",0.47 µM
same,IC50,"[2]; Homo sapiens, RL, 72 h, +Cu (10 μM), 72 hr, G2-8HQ values based on MW of apo form (337), read-out: IC50",0.468 µM
same,IC50,"[2]; Homo sapiens, RL, 72 h, −Cu, 72 hr, read-out: IC50",> 500 µM
same,IC50,"[2]; Homo sapiens, RL, complexed with Cu, multiplied by 337/776=0.43, read-out: IC50 (adjusted to MW of copper complex)",0.2 µM
same,IC50,"[3]; +Cu, complexed in situ with copper immediately prior to testing, apo MW (337), read-out: IC50",154 µM
same,IC50,"[3]; Homo sapiens, LNCaP, +Cu, complexed in situ with copper immediately prior to testing, apo MW (337), read-out: IC50",109 µM
same,IC50,"[3]; Homo sapiens, LNCaP, complexed with Cu in situ, * differences with or without excipient, suboptimal complexing, read-out: IC50 (adjusted to MW of copper complex)",46.9 µM
same,IC50,[3]; [6],66.2 µM
same,IC50,"[4]; +Cu, complexed in situ with copper immediately prior to testing, not based on apo MW, read-out: IC50",170 µM
same,IC50,"[4]; Homo sapiens, UACC-62, +Cu, complexed in situ with copper immediately prior to testing, not based on apo MW, read-out: IC50",154 µM
same,IC50,"[4]; Homo sapiens, UACC-62, complexed with Cu in situ, * differences with or without excipient, suboptimal complexing, read-out: IC50 (adjusted to MW of copper complex)",152 µM
same,IC50,[4]; [6],167 µM
